Test results as given in patent US6680301B2, “Transfer of molecules into the cytosol of cells” (Photocure AS, priority 1994, dated 2004).
Entries after “also recorded” stand apart in the source; their conditions may differ. [FluoU] = uridine (ribose) carrying fluorescein on the base; {invT} = 3'-3' inverted thymidine; m = 2'-O-methyl; r = 2'-OH (RNA)

Tests used:
[1] = system: THX-cells; experiment: Transfection efficiency after PCI with different doses of AlPcS2a (Example 20); assay type: cell-based, human; settings: 5 or 40 μg/ml AlPcS2a, pEGFP-N1-polylysine complex, 2 or 4 min light
Experimental: FIG. 21 illustrates transfection efficiency after PCI with different doses of AlPcS2a. Cells were treated with different doses of the photosensitizer, transfected with a plasmid DNA-polylysine complex and analysed by flow cytometry as described in the text of Example 20. the white bars represent an AlPcS2a dose of 5 μg/ml, while the black bars represent 40 μg/ml.
THX-cells were seeded out into 6 well plates (60 000 cells per well). After overnight incubation AlPcS2a in concentrations of 5 μg/ml or 40 μg/ml was added, and the cells were incubated for 18 h at 37° C. The cells were then washed 3 times with culture medium and transfected with pEGFP-N1-polylysine complex (amount of plasmid 5 μg/ml, charge ratio 1.2, see Example 17) for 6 h. The transfected cells were washed once with medium, and after addition of 2 ml of culture medium the cells were exposed to red light (Phillips TL 20 W/09, filtered through a Cinemoid 35 filter) for 2 or 4 min (control cells were not exposed to the light) and incubated further at 37° C. for 40 hrs before flow cytometry analysis (see Example 17).

[2] = system: V79 cells; experiment: Protein synthesis after photosensitizer and light with or without gelonin; assay type: cell-based, Chinese hamster; settings: 25 μg/ml AlPcS2a
Experimental: FIG. 5 illustrates protein synthesis in V79 cells after treatment with 25 μg/ml AlPcS2 and light in the absence and presence of 1 μg/ml gelonin. Symbols: ● Photosensitizer+toxin; ◯ photosensitizer.
(§1) The intracellular location of the photosensitizers are lysosomal (TPPS4, TPPS2a, AlPcS2a) and extralysosomal (3-THPP). The following abbreviations are used: AlPcS2a for aluminum phtalocyanine with 2 sulfonate groups on adjacent phenyl rings; TPPS4 for meso-tetraphenylporphine with 4 sulfonate groups; TPPS2a for meso-tetraphenylporphine with 2 sulfonate groups on adjacent phenyl rings; 3-THPP for tetrahydroxylphenyl porphine. The cell lines used were carcinoma cells in situ from human cervix (NHIK 3025), Chinese hamster lung fibroblasts (V79), SV40-transformed African Green monkey kidney (CV1-simian fibroblasts-like cells) (Cos-7) human osteosarcoma cells (OHS) and small cell lung cancer cells (H146). All experiments were designed as in Example 1.
This example relates to use of the photosensitizer AlPcS2a in V79 cells with or without gelonin as the toxin (FIG. 5). […] (Moan, J., Berg, K., Anholt, H. and Madslien, K. (1994). Sulfonated aluminum phtalocyanines as sensitizers for photochemotherapy. Effects of small light doses on localization, dye fluorescence and photosensitivity in V79 cells. Int. J. Cancer 58: 865-870.)

[3] = system: NHIK 3025 cells; experiment: Protein synthesis (3[H]leucine incorporation) after photosensitizer, toxin and light; assay type: cell-based, human
Experimental: FIG. 2 illustrates protein synthesis in NHIK 3025 cells after treatment with gelonin in the absence or presence of TPPS2a and 50 sec light exposure. Symbols: ◯, TPPS2a+light; ●, −TPPS2a−light; ∇, +TPPS2a−light; ▾, −TPPS2a+light. […] Protein synthesis was measured by measuring incorporation of ^3[H]leucine into proteins, 24 hours after light exposure.
(§2) NHIK 3025 cells were incubated with TPPS2a (Formula I) and gelonin, separately or together for 18 hours, followed by 1 hour in TPPS2a and gelonin-free medium before the cells were exposed to light. Protein synthesis was measured 24 hours after exposure to light. The photodynamic treatment, which kills 10-20% of the cells alone, reduced the protein synthesis by 30-40% (FIG. 2).
as §1

[4] = system: NHIK 3025 cells; experiment: Cell killing / clonogenic survival after TPPS2a, gelonin and light; assay type: cell-based, human
Experimental: as §2
NHIK 3025 cells were incubated with TPPS2a and gelonin according to the design of Example 1.
Clonogenic survival of the cells was measured 24 hours after exposure to light. […] This is in accordance with prior art regarding killing unwanted cells with PDT. […] Increased concentration of added gelonin leads to more gelonin in the cytosol, as indicated by an increased sensitivity of the cells to photoactivation.

[5] = system: THX-cells; experiment: PCI-induced transfection of TPPS2a-treated THX-cells (Example 23); assay type: cell-based, human; settings: 2 μg/ml TPPS2a, blue light 30-150 s, pEGFP-N1-polylysine complex
Experimental: FIG. 24 illustrates PCI induced transfection of TPPS2a-treated THX-cells. Cells were treated with TPPS2a and transfected with a complex of plasmid DNA and polylysine as described in the text of Example 23. After light treatment the cells were analysed by flow cytometry. The white circle represents the total population of living cells, the black sector represents the fraction of cells that was positive for GFP-expression. Light exposure times are indicated on the Figure.
A pEGFP-N1-polylysine complex (5 μg DNA, charge ratio 1.2 was prepared as described above (see Example 17).
THX-cells were seeded out into 6 well plates (60 000 cells per well). After overnight incubation 2 μg/ml of the photosensitizer TPPS2a was added and the cells were incubated further for 18 h at 37° C. The cells were then washed 3 times with culture medium and transfected with the pEGFP-N1-polylysine complex for 6 h. The transfected cells were washed once with medium, and after addition of 2 ml of culture medium the cells were exposed to blue light (Appl. Photophysics, Nood. 3026, London) for 30, 60, 90, 120 or 150 s (control cells were not exposed to the light) and incubated further at 37° C. After 2 days the cells were seeded out into bigger 3004 dishes and incubated further so that the total incubation time before flow cytometry analysis was 108 h.

[6] = system: lysosomal cathepsin; experiment: Inhibition of lysosomal cathepsin by photodynamic action; assay type: cell-based, human; settings: culture of NHIK 3025 cells
Source text: This was a surprising effect of the present invention and assists in maintaining the viability and functionality of the cells after transporting molecules into cytosol by disrupting endosomal/lysosomal membranes.

[7] = system: THX human melanoma cells; experiment: PCI relocalization of fluorescein-labeled ribozyme (fluorescence microscopy); assay type: cell-based
Experimental: FIG. 14 illustrates subcellular localization of a fluorescein-ribozyme (5.5 μM) and AlPcS2a (20 μg/ml) in THX cells after 18 h incubation followed by 1 h wash. The Figure illustrates localization without light exposure (A) and after 10 min red light exposure followed by 40 min incubation in the dark (B). (Magnification 40×2.5).
The ribozyme employed in this example was a 37-mer synthetic 2′-O-methylated ribozyme designed against mRNA of the metastasis associated protein capl. The sequence (SEQ ID NO:1) was as follows:
5′-UAGUUCUCU GAUGAGGCCGNUAGGCCGAAA CUUGUU Y-3′, (SEQ ID NO: 1) where N is bases with 2′-O-methylated ribose, Y is uridine with a 3′-3′ inverted thymidine at the 3′ end, N is fluorescein attached to uracil.
To study the intracellular localization of the photosensitizer AlPcS2a and the ribozyme, THX human melanoma cells were plated on 16 well Lab-Tek (Nunc Inc.) chamber slides (3000 cells well^−1). After 18 h the culture medium was replaced with fresh RPMI medium supplemented with 10% fetal calf serum (FCS, Integro b.v., Holland) and containing […] AlPcS2a and […] ribozyme. […]
Control cells were observed without irradiation. […] Phase-contrast and fluorescence micrographs were recorded by means of a cooled charge-coupled device (CCD) camera (Astromed 3200, Cambridge, England).

[8] = system: OHS cells; experiment: Protein synthesis after TPPS2a and light with or without gelonin; assay type: cell-based, human; settings: 3 μg/ml TPPS2a, 3 μg/ml gelonin, 50 μM chloroquine or 10 mM NH4Cl
Experimental: FIG. 13 illustrates protein synthesis in OHS cells after treatment with 3 μg/ml TPPS2a for 18 hours followed by 4 hours in the absence of TPPS2a and in the absence or presence of 3 μg/ml gelonin before exposure to light. The cells were incubated for the same 4 hours in 50 μM chloroquine or 10 mM NH4Cl to inhibit lysosomal protein degradation.
as §1
(FIG. 13). In this cell line there is a considerable protein degradation in the lysosomes, which in the present example is inhibited by incubating the cells for 4 hours in either 50 μM chloroquine or 10 mM NH4Cl.

[9] = system: H146 cells; experiment: as above; assay type: cell-based; settings: 0.3 μg/ml TPPS2a, 1 μg/ml gelonin
Experimental: FIG. 6 illustrates protein synthesis in H146 cells after treatment with 0.3 μg/ml TPPS2a and light in the absence and presence of 1 μg/ml gelonin. Symbols as in FIG. 5.
as §1
(FIG. 6). TPPS2a is known to be lysosomally located in the cell. […]

[10] = system: COS-7 cells; experiment: as above; assay type: cell-based, African Green monkey; settings: 3 μg/ml TPPS2a, 1 μg/ml gelonin
Experimental: FIG. 11 illustrates protein synthesis in COS-7 cells after treatment with 3 μg/ml TPPS2a and light in the absence and presence of 1 μg/ml gelonin. Symbols as in FIG. 5.
as §1

aluminum phtalocyanine with 2 sulfonate groups on adjacent phenyl rings [AlPcS2a, reference compound]
percentage of transfected cells versus photosensitizer concentration [1]: increased with increasing photosensitizer concentration
protein synthesis with photosensitizer and light, without toxin ([2]; selected light dose): small reduction in protein synthesis

Oc1cccc(-c2c3nc(c(-c4cccc(O)c4)c4ccc([nH]4)c(-c4cccc(O)c4)c4nc(c(-c5cccc(O)c5)c5ccc2[nH]5)C=C4)C=C3)c1 [3-THPP, tetrahydroxylphenyl porphine, reference compound]
difference in protein synthesis effect with or without gelonin ([3]; 0.25 μg/ml 3-THPP, light, 1 μg/ml gelonin, comparative example): no significant difference

O=S(=O)(O)c1ccc(-c2c3nc(c(-c4ccc(S(=O)(=O)O)cc4)c4ccc([nH]4)c(-c4ccccc4)c4nc(c(-c5ccccc5)c5ccc2[nH]5)C=C4)C=C3)cc1 [TPPS2a, meso-tetraphenylporphine with 2 sulfonate groups on adjacent phenyl rings]
cells killed by the photodynamic treatment alone ([4]; TPPS2a and light, no gelonin): 10-20%
clonogenic survival with TPPS2a and light ([4]; light exposure increased, 24 hours after light): virtually all cells were killed
transfection-enhancing effect of PCI light treatment with TPPS2a as photosensitizer [5]: substantial transfection-enhancing effect; also recorded: essentially the same as for AIPcS2a
reduction of protein synthesis by the photodynamic treatment alone ([3]; TPPS2a and light, no gelonin, 24 hours after light): 30-40%
inhibition of lysosomal cathepsin by photodynamic action [6]: substantially inhibited

ribozyme: 37-mer synthetic 2′-O-methylated fluorescein-labeled ribozyme designed against mRNA of the metastasis associated protein capl (SEQ ID NO:1) (UAGUUCUCUGAUGAGGCCGUUAGGCCGAAACUUGUUY; sugars from the 5' end mmmmmmmmmrrmrrrrmmrrrrrrmmrrrrmmmmmmr, [FluoU] at 20, 3' {invT}, backbone and the base at N not given here)
subcellular localization, nonirradiated cells ([7]; 5.5 μM ribozyme, 20 μg/ml AlPcS2a, 18 h, no light): mainly localized in intracellular granules
subcellular localization after light exposure ([7]; 10 min red light, then 40 min): most of the ribozyme fluorescence was present in the cytosol

saporin
transport of toxin into cells by TPPS2a and light ([3]; 3.2 μg/ml TPPS2a, 1 μg/ml toxin): demonstrates transport of the toxin saporin into NHIK 3025 cells

gelonin
transport of toxin into cells by TPPS2a and light [8]: demonstrates the transport of gelonin into OHS cells
clonogenic survival when gelonin is added to TPPS2a and light ([4]; 0.2 or 2.0 μg/ml gelonin): the survival rate drops
IC50 of gelonin for inhibition of protein synthesis when combining PDT and gelonin ([3]; 3.2 μg/ml TPPS2a, 50 sec light, measured 24 hours after light): 0.2 µg/mL
transport of gelonin into cells with TPPS4 and light ([3]; 75 μg/ml TPPS4, 50 sec light, different gelonin concentrations): demonstrates transport of gelonin into NHIK 3025 cells
transport of gelonin into cells in controls ([3]; gelonin alone with light, or TPPS4 and gelonin without light): no transport of gelonin into the cells was obtained
effect of gelonin alone on protein synthesis ([3]; gelonin alone, presence or absence of light, no PDT): inhibits protein synthesis to some extent
protein synthesis with photosensitizer, light and gelonin ([2]; 1 μg/ml gelonin): profoundly reduced
transport of toxin into cells by TPPS2a and light [9]: transport of the toxin gelonin into H146 cells without essentially affecting the viability of the cells
transport of toxin into cells by TPPS2a and light [10]: demonstrates the transport of gelonin into COS-7 cells
